SMILES strings stand for the structures. Where “and” joins values, the source holds several entries; their conditions need not be identical. Equal values may be shown once.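 Test compounds were applied to cells in 96-well plates for 48 hours at 5 doses. GI50 = concentration required for 50% inhibition of growth. Definition used: TGI = concentration required for complete inhibition of growth.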

Test systems include RPMI-8226 leukemia; SK-MEL-5 melanoma; TK-10 renal; U251 CNS; ACHN renal; UACC-257 melanoma; KM12 colon; SNB-75 CNS; UO-31 renal; OVCAR-5 ovarian.
Common to all, as to test: DTP human tumour cell line panel, 48 h

In the case of `Fc1ccc(C(OCCN2CC3CC2CN3)c2ccc(F)cc2)cc1` (stereo unspecified), the TGI (commonly the concentration at which net growth stops) with RPMI-8226 leukemia is 71.1 µM; in the experiment on SK-MEL-5 melanoma it was 30.9 µM; in the experiment with TK-10 renal it was more than 100 µM; in the experiment with U251 CNS it was more than 100 µM; with ACHN renal, more than 100 µM; with UACC-257 melanoma, 36.6 µM. Also, the TGI with KM12 colon and in the experiment on SNB-75 CNS was more than 100 µM each time.

For the compound `O=S(=O)(c1ccc2ccccc2c1)N1CCN(S(=O)(=O)c2ccc3ccccc3c2)CC1`, the TGI in the experiment on RPMI-8226 leukemia, in the experiment with UO-31 renal, with SK-MEL-5 melanoma, with TK-10 renal, in the experiment with OVCAR-5 ovarian and with U251 CNS was more than 100 µM each time. Moreover, the TGI with ACHN renal was more than 100 µM; with UACC-257 melanoma it was more than 100 µM; in the experiment on KM12 colon, more than 100 µM; in the experiment with SNB-75 CNS it was 60 µM.

`CO/C(=N\N=C(/c1ccccc1)C(F)(F)F)c1ccncc1`: the total growth inhibition concentration (TGI) with RPMI-8226 leukemia is more than 100 µM; in the experiment on UO-31 renal, more than 100 µM; with SK-MEL-5 melanoma it was 57 µM; in the experiment with OVCAR-5 ovarian, more than 100 µM; in the experiment on U251 CNS, more than 100 µM; in the experiment with KM12 colon it was more than 100 µM. For the same compound, in the experiment on SNB-75 CNS, the TGI is more than 100 µM.

For `CCN(CC)C(=S)SSCCO`, the GI50 (commonly the concentration at which growth is held to half of that of the control) is 14.4 µM with RPMI-8226 leukemia; 15.8 µM with UO-31 renal; 16.5 µM in the experiment on SK-MEL-5 melanoma; 24 µM in the experiment on TK-10 renal; 17.7 µM in the experiment on OVCAR-5 ovarian; 16.7 µM in the experiment with U251 CNS. Moreover, the GI50 with ACHN renal is 18.7 µM; with UACC-257 melanoma, 19.1 µM; in the experiment with KM12 colon, 15 µM; in the experiment with SNB-75 CNS, 14.8 µM. Further, the concentration for total growth inhibition (TGI) turned out to be 39.5 µM with RPMI-8226 leukemia; 32.3 µM in the experiment with UO-31 renal; 53.1 µM in the experiment on SK-MEL-5 melanoma; 40.8 µM in the experiment with TK-10 renal; 31.5 µM in the experiment on OVCAR-5 ovarian; 37.5 µM in the experiment with U251 CNS. For the same compound, the TGI in the experiment on ACHN renal turned out to be 35.8 µM; in the experiment with UACC-257 melanoma it was 48.6 µM; with KM12 colon it was 30.1 µM; in the experiment with SNB-75 CNS it was 28 µM.

In the case of `Cc1cc(C)c(S(=O)(=O)N(CCCN)OCCCN)c(C)c1`, the TGI in the experiment with RPMI-8226 leukemia, in the experiment with UO-31 renal, in the experiment on SK-MEL-5 melanoma, in the experiment on TK-10 renal, in the experiment on OVCAR-5 ovarian and with U251 CNS was more than 100 µM in each case. Besides, the TGI with ACHN renal, with UACC-257 melanoma, with KM12 colon and in the experiment with SNB-75 CNS was more than 100 µM in each case.

`O=C([O-])C1([n+]2c(-c3ccccc3)cc(-c3ccccc3)cc2-c2ccccc2)CC1`: the total growth inhibition concentration (TGI) in the experiment on RPMI-8226 leukemia, with SK-MEL-5 melanoma, in the experiment with TK-10 renal, in the experiment with OVCAR-5 ovarian, in the experiment with U251 CNS and in the experiment with ACHN renal was more than 100 µM in each case. The TGI with UACC-257 melanoma and with SNB-75 CNS was more than 100 µM each time.

In the case of `CC(=O)Nc1cc(/C=C\C(=O)N2CC(CCl)c3c2cc(N)c2ccccc32)n(C)n1` (stereo unspecified), the TGI in the experiment with RPMI-8226 leukemia is 0.0577 µM and 0.0242 µM; in the experiment on UO-31 renal, 0.0214 µM; in the experiment with TK-10 renal, more than 100 µM; in the experiment with U251 CNS it was 1.23 µM and 3.23 µM; in the experiment on UACC-257 melanoma it was 0.0394 µM; with SNB-75 CNS, 0.0141 µM and 0.0459 µM.

Turning to `N=C(N)c1ccc(N=Nc2c(O)ccc3cc(O)ccc23)cc1`, the concentration for total growth inhibition (TGI) with RPMI-8226 leukemia, in the experiment on UO-31 renal, in the experiment on SK-MEL-5 melanoma, in the experiment on TK-10 renal, in the experiment with OVCAR-5 ovarian and with U251 CNS was more than 100 µM throughout. In addition, the concentration for total growth inhibition (TGI) in the experiment with ACHN renal, in the experiment with UACC-257 melanoma and in the experiment on KM12 colon was more than 100 µM in each case.

As for `CC1=NN(C(=O)c2ccc(C)cc2)C(=O)C1N=Nc1ccccc1C(=O)O` (stereo unspecified), the TGI in the experiment with RPMI-8226 leukemia, with UO-31 renal, in the experiment on SK-MEL-5 melanoma, in the experiment with OVCAR-5 ovarian, in the experiment with U251 CNS and in the experiment with UACC-257 melanoma was more than 100 µM throughout. The TGI in the experiment on KM12 colon is more than 100 µM; with SNB-75 CNS it was 98.9 µM.

With `CCOC(=O)[C@H]1Nc2c(cccc2[N+](=O)[O-])C2c3ccccc3CC21` (stereo partly specified), the TGI in the experiment on RPMI-8226 leukemia, in the experiment with UO-31 renal, in the experiment with SK-MEL-5 melanoma, in the experiment on TK-10 renal, in the experiment with OVCAR-5 ovarian and in the experiment on U251 CNS was more than 100 µM in each case. In addition, the total growth inhibition concentration (TGI) in the experiment on ACHN renal was more than 100 µM; with UACC-257 melanoma, 98.4 µM; with KM12 colon, more than 100 µM; in the experiment with SNB-75 CNS, more than 100 µM.

Consider `Cc1ccc2oc3c(ccc(=O)n3C)c(=O)c2c1`, for which the TGI in the experiment on UO-31 renal, with SK-MEL-5 melanoma, in the experiment on TK-10 renal, in the experiment with OVCAR-5 ovarian, with U251 CNS and in the experiment on ACHN renal was more than 100 µM each time. Further, the TGI with KM12 colon and in the experiment on SNB-75 CNS was more than 100 µM in each case.

As for `O=c1[nH]c(=S)[nH]c2c(C3OC(CO)C(O)C3O)nsc12` (stereo unspecified), the total growth inhibition concentration (TGI) in the experiment with SK-MEL-5 melanoma, in the experiment on TK-10 renal, with OVCAR-5 ovarian, with U251 CNS, with UACC-257 melanoma and in the experiment with SNB-75 CNS was more than 100 µM throughout.

Consider `N/C(=N\N=C/c1cc([N+](=O)[O-])cc([N+](=O)[O-])c1O)NO`, for which the TGI with RPMI-8226 leukemia was more than 100 µM; with UO-31 renal, more than 100 µM; with SK-MEL-5 melanoma, more than 38.4 µM; with OVCAR-5 ovarian it was more than 87.3 µM; in the experiment with U251 CNS it was more than 100 µM; with UACC-257 melanoma it was more than 100 µM. Besides, the total growth inhibition concentration (TGI) in the experiment on KM12 colon is more than 100 µM; with SNB-75 CNS, more than 80.9 µM.

For the compound `COc1cccc(/C=N/[N-]C(N)=O)c1[O-].[OH3+].[Pd+2]`, the total growth inhibition concentration (TGI) in the experiment with RPMI-8226 leukemia, in the experiment with UO-31 renal, with SK-MEL-5 melanoma, in the experiment with TK-10 renal, in the experiment with OVCAR-5 ovarian and in the experiment on U251 CNS was more than 100 µM throughout. Moreover, the total growth inhibition concentration (TGI) with ACHN renal, with UACC-257 melanoma, in the experiment on KM12 colon and in the experiment on SNB-75 CNS was more than 100 µM throughout.

Consider `CC(N)=O.[Cl][Pt][Cl].[NH-]c1ccn(C2OC(CO)C(O)C2O)c(=O)n1` (stereo unspecified), for which the total growth inhibition concentration (TGI) with RPMI-8226 leukemia, in the experiment on UO-31 renal, in the experiment with SK-MEL-5 melanoma, with TK-10 renal, in the experiment on OVCAR-5 ovarian and in the experiment on U251 CNS was more than 100 µM in each case. Besides, the TGI in the experiment with ACHN renal, in the experiment on UACC-257 melanoma, in the experiment with KM12 colon and in the experiment on SNB-75 CNS was more than 100 µM each time.

For the compound `CC1=CC(=O)c2c(O)c3c(c(O)c2C1=O)C1C(O)C(C3=O)C23C(=O)c4c(O)c(C)cc(O)c4C(O)=C2C(=O)CC(O)C13` (stereo unspecified), the concentration for total growth inhibition (TGI) in the experiment on SK-MEL-5 melanoma came to 4 µM; in the experiment on TK-10 renal it was 11.6 µM; in the experiment on OVCAR-5 ovarian it was 9.08 µM; with U251 CNS, 15.9 µM; with ACHN renal it was 7.44 µM; with UACC-257 melanoma, 3.5 µM. The TGI with KM12 colon worked out at 2.5 µM; in the experiment on SNB-75 CNS it was 9.1 µM.

As for `O=C(/C=C\c1ccc(/C=C/C(=O)Nc2cccc(C3=NCCCN3)c2)cc1)Nc1cccc(C2=NCCCN2)c1`, the TGI was 76.3 µM in the experiment with RPMI-8226 leukemia; more than 100 µM with UO-31 renal; more than 83.5 µM in the experiment on SK-MEL-5 melanoma; more than 100 µM with OVCAR-5 ovarian; more than 100 µM in the experiment on U251 CNS; more than 100 µM with UACC-257 melanoma. Further, the TGI in the experiment on KM12 colon and with SNB-75 CNS was more than 100 µM each time.

For the compound `Clc1cccc(C2SCc3nc4ccccc4n32)c1` (stereo unspecified), the TGI was more than 100 µM in the experiment with RPMI-8226 leukemia; 63.9 µM with TK-10 renal; 95.6 µM in the experiment with OVCAR-5 ovarian; 33 µM in the experiment with U251 CNS; 99.2 µM in the experiment with ACHN renal; 50.5 µM with KM12 colon. Further, the TGI in the experiment with SNB-75 CNS amounted to 21.3 µM.

Source of the values: PubChem BioAssay (NCI).
